Source: US20240417411A1, “COMPOUNDS AND METHODS FOR TREATMENT OF VIRAL INFECTIONS” (priority 2023, published 2024)

Columns and labels:
[1] = in vitro; assay type: cell-based; conditions: human
Experimental: Example C: CC50 MT4 Cytotoxicity of the compounds was determined in uninfected cells using the cell viability reagent in a similar fashion as described before for other cell types ([…] et al., Antimicrob Agents Chemother. 2008,52(2):655-65). […] Cells were cultured for 4-5 days at 37° C. Following the incubation, the cells were allowed to equilibrate to 25° C., and cell viability was determined by adding Cell-Titer Glo viability reagent. The mixture was incubated for 10 min, and the luminescence signal was quantified using an Envision plate reader. Untreated cell and cells treated at 2 μM puromycin (Sigma, St. Louis, MO) serve as 100% and 0% cell viability control, respectively. The percent of cell viability was calculated for each tested compound concentration relative to the 0% and 100% controls and the CC50 value was determined by non-linear regression as a compound concentration reducing the cell viability by 50%.

[2] = test system: RSV-Luc5; experiment: microbe, parasite or virus in culture; assay type: cell-based; conditions: human respiratory syncytial virus, NHBE, 72 h, read-out: RSV NHBE EC50 (nM)
[3] = in vitro; assay type: in vitro ADME; conditions: human, s9, pH 7.4
Experimental: Example D: GI S9 Stability […] The S9 metabolic reactions were initiated by the addition of the substrates to the S9 reaction mixture to a final concentration of 2 μM. […] Aliquots ([…]) of the diluted supernatant were analyzed on a Thermo Q-Exactive mass spectrometer as described below. Example F: Liquid Chromatography/Mass Spectroscopy Methods for S9 and Plasma Stability Quantification of test compounds, Reference Compound A (S9 stability assay nucleoside metabolite), and controls was performed by analyte/internal standard peak area ratio (PAR) values measured on a Thermo Q-Exactive mass spectrometer coupled to a Dionex UltiMate 3000 HPLC with a Leap Technologies HTC PAL autosampler. […] Mobile phase A consisted of 0.1% (v/v) formic acid in water. Mobile phase B consisted of 0.1% (v/v) formic acid in acetonitrile. Elution of analytes was achieved by a series of linear gradients of acetonitrile in water containing 0.10% (v/v) formic acid. The mass spectrometer was calibrated on a weekly basis and mass tolerance of 5 ppm was used.

[4] = test system: SARS-CoV2-NLuc; experiment: microbe, parasite or virus in culture; assay type: cell-based, SARS Coronavirus 2; conditions: Severe acute respiratory syndrome coronavirus 2, 48 h, read-out: SARS-CoV2 EC50 (nM)
[5] = test system: Caco-2 cells (clone C2BBe1); conditions: human, Caco-2
[6] = in vitro; conditions: human, plasma

Row | Structure (SMILES) | CC50 [1] | EC50 [2] | half-life at 2 μM [3] | EC50 [4] | Caco2 A to B [5] | Caco2 B to A [5] | half-life at 2 μM [6]
1 | CC1(C)CC(=O)O[C@H]2[C@@H](OC(=O)C1)[C@](C#N)(c1ccc3c(N)ncnn13)O[C@@H]2COC(=O)OC(C)(C)c1ccncc1 [Compound C34, ((7aR,8R,10R,10aR)-10-(4-aminopyrrolo[2,1-f][1,2,4]triazin-7-yl)-10-cyano-4,4-dimethyl-2,6-dioxooctahydro-2H-furo[3,4-b][1,4]dioxonin-8-yl)methyl (2-(pyridin-4-yl)propan-2-yl) carbonate] | > 50 µM | > 50000 nM | 44.7 min | 8120 nM | – | – | –
2 | CC1(C)CC(=O)O[C@H]2[C@@H](OC(=O)C1)[C@](C#N)(c1ccc3c(N)ncnn13)O[C@@H]2COC(=O)OC(C)(C)C(F)F [Compound C42, ((7aR,8R,10R,10aR)-10-(4-aminopyrrolo[2,1-f][1,2,4]triazin-7-yl)-10-cyano-4,4-dimethyl-2,6-dioxooctahydro-2H-furo[3,4-b][1,4]dioxonin-8-yl)methyl (1,1-difluoro-2-methylpropan-2-yl) carbonate] | > 50 µM | > 50000 nM | 27.7 min | > 50000 nM | – | – | –
3 | N#C[C@@]1(c2ccc3c(N)ncnn23)O[C@H](CO)[C@H]2OC(=O)CCCC(=O)O[C@H]21 [Compound C10, (7aR,8R,10R,10aR)-8-(4-aminopyrrolo[2,1-f][1,2,4]triazin-7-yl)-10-(hydroxymethyl)-2,6-dioxooctahydro-2H-furo[3,4-b][1,4]dioxonine-8-carbonitrile] | > 50 µM | – | 0.768 min | – | – | – | –
4 | CC1(C)CC(=O)O[C@H]2[C@@H](OC(=O)C1)[C@](C#N)(c1ccc3c(N)ncnn13)O[C@@H]2COC(=O)OCC1(C#N)CC1 [Compound C41, ((7aR,8R,10R,10aR)-10-(4-aminopyrrolo[2,1-f][1,2,4]triazin-7-yl)-10-cyano-4,4-dimethyl-2,6-dioxooctahydro-2H-furo[3,4-b][1,4]dioxonin-8-yl)methyl ((1-cyanocyclopropyl)methyl) carbonate] | > 50 µM | > 50000 nM | 4.17 min | > 50000 nM | 0.54 | 6.77 | –
5 | N#C[C@@]1(c2ccc3c(N)ncnn23)O[C@H](COC(=O)C2CCC2)[C@H]2OC(=O)CCCC(=O)O[C@H]21 [Compound C57, ((7aR,8R,10R,10aR)-10-(4-aminopyrrolo[2,1-f][1,2,4]triazin-7-yl)-10-cyano-2,6-dioxooctahydro-2H-furo[3,4-b][1,4]dioxonin-8-yl)methyl cyclobutanecarboxylate] | > 50 µM | 3780 nM | – | 3000 nM | – | – | 7.33 min
6 | CC(C)OC(=O)OC[C@H]1O[C@@](C#N)(c2ccc3c(N)ncnn23)[C@@H]2OC(=O)CCCCCCC(=O)O[C@@H]21 [Compound C5, ((10aR,11R,13R,13aR)-13-(4-aminopyrrolo[2,1-f][1,2,4]triazin-7-yl)-13-cyano-2,9-dioxododecahydrofuro[3,4-b][1,4]dioxacyclododecin-11-yl)methyl isopropyl carbonate] | > 50 µM | – | 0.754 min | – | – | – | –
7 | N#C[C@@]1(c2ccc3c(N)ncnn23)O[C@H](COC(=O)OC2CNC2)[C@H]2OC(=O)CCCC(=O)O[C@H]21 [Compound C50, ((7aR,8R,10R,10aR)-10-(4-aminopyrrolo[2,1-f][1,2,4]triazin-7-yl)-10-cyano-2,6-dioxooctahydro-2H-furo[3,4-b][1,4]dioxonin-8-yl)methyl azetidin-3-yl carbonate 2,2,2-trifluoroacetate] | > 50 µM | 14500 nM | 1.91 min | 3110 nM | – | – | –
8 | CC(C)OC(=O)OC[C@H]1O[C@@](C#N)(c2ccc3c(N)ncnn23)C2OC(=O)CCC(=O)OC21 (stereo partly drawn) [Compound C1, ((7R,9R)-9-(4-aminopyrrolo[2,1-f][1,2,4]triazin-7-yl)-9-cyano-2,5-dioxooctahydrofuro[3,4-b][1,4]dioxocin-7-yl)methyl isopropyl carbonate] | > 50 µM | – | 0.716 min | – | – | – | –
9 | CC1(C)CC(=O)O[C@H]2[C@@H](OC(=O)C1)[C@](C#N)(c1ccc3c(N)ncnn13)O[C@@H]2COC(=O)OCCN1CCOCC1 [Compound C36, ((7aR,8R,10R,10aR)-10-(4-aminopyrrolo[2,1-f][1,2,4]triazin-7-yl)-10-cyano-4,4-dimethyl-2,6-dioxooctahydro-2H-furo[3,4-b][1,4]dioxonin-8-yl)methyl (2-morpholinoethyl) carbonate] | > 50 µM | > 50000 nM | 31.6 min | > 50000 nM | – | – | –
10 | CC1(C)CC(=O)O[C@H]2[C@@H](OC(=O)C1)[C@](C#N)(c1ccc3c(N)ncnn13)O[C@@H]2COC(=O)OC1CNC1 [Compound C51, ((7aR,8R,10R,10aR)-10-(4-aminopyrrolo[2,1-f][1,2,4]triazin-7-yl)-10-cyano-4,4-dimethyl-2,6-dioxooctahydro-2H-furo[3,4-b][1,4]dioxonin-8-yl)methyl azetidin-3-yl carbonate 2,2,2-trifluoroacetate] | > 50 µM | > 50000 nM | 26.6 min | > 50000 nM | – | – | –
11 | CC1(C)[C@H]2CC[C@@](C)(C2)[C@H]1OC(=O)OC[C@H]1O[C@@](C#N)(c2ccc3c(N)ncnn23)[C@@H]2OC(=O)CCCC(=O)O[C@@H]21 [Compound C28, ((7aR,8R,10R,10aR)-10-(4-aminopyrrolo[2,1-f][1,2,4]triazin-7-yl)-10-cyano-2,6-dioxooctahydro-2H-furo[3,4-b][1,4]dioxonin-8-yl)methyl ((1S,2R,4S)-1,3,3-trimethylbicyclo[2.2.1]heptan-2-yl) carbonate] | 18 µM | 7110 nM | 0.595 min | 21700 nM | – | – | –
12 | CC(C)(C)COC(=O)OC[C@H]1O[C@@](C#N)(c2ccc3c(N)ncnn23)[C@@H]2OC(=O)CC(C)(C)CC(=O)O[C@@H]21 [Compound C46, ((7aR,8R,10R,10aR)-10-(4-aminopyrrolo[2,1-f][1,2,4]triazin-7-yl)-10-cyano-4,4-dimethyl-2,6-dioxooctahydro-2H-furo[3,4-b][1,4]dioxonin-8-yl)methyl neopentyl carbonate] | > 50 µM | 11700 nM | 4.71 min | > 50000 nM | – | – | –
13 | CCC(CC)COC(=O)OC[C@H]1O[C@@](C#N)(c2ccc3c(N)ncnn23)[C@@H]2OC(=O)CC(C)(C)CC(=O)O[C@@H]21 [Compound C38, ((7aR,8R,10R,10aR)-10-(4-aminopyrrolo[2,1-f][1,2,4]triazin-7-yl)-10-cyano-4,4-dimethyl-2,6-dioxooctahydro-2H-furo[3,4-b][1,4]dioxonin-8-yl)methyl (2-ethylbutyl) carbonate] | 30.9 µM | > 50000 nM | 7.17 min | 38300 nM | – | – | –
14 | CCOC(=O)C(C)(C)OC(=O)OC[C@H]1O[C@@](C#N)(c2ccc3c(N)ncnn23)[C@@H]2OC(=O)CC(C)(C)CC(=O)O[C@@H]21 [Compound C43, ethyl 2-(((((7aR,8R,10R,10aR)-10-(4-aminopyrrolo[2,1-f][1,2,4]triazin-7-yl)-10-cyano-4,4-dimethyl-2,6-dioxooctahydro-2H-furo[3,4-b][1,4]dioxonin-8-yl)methoxy)carbonyl)oxy)-2-methylpropanoate] | > 50 µM | > 50000 nM | 19.7 min | > 50000 nM | 2.93 | 11.62 | –
15 | CC1(C)CC(=O)O[C@H]2[C@@H](OC(=O)C1)[C@](C#N)(c1ccc3c(N)ncnn13)O[C@@H]2COC(=O)O[C@H]1C(C)(C)[C@H]2CC[C@@]1(C)C2 [Compound C45, ((7aR,8R,10R,10aR)-10-(4-aminopyrrolo[2,1-f][1,2,4]triazin-7-yl)-10-cyano-4,4-dimethyl-2,6-dioxooctahydro-2H-furo[3,4-b][1,4]dioxonin-8-yl)methyl ((1S,2R,4S)-1,3,3-trimethylbicyclo[2.2.1]heptan-2-yl) carbonate] | 12.6 µM | 4160 nM | 37.3 min | 9170 nM | – | – | –
16 | COC(C)(C)COC(=O)OC[C@H]1O[C@@](C#N)(c2ccc3c(N)ncnn23)[C@@H]2OC(=O)CC(C)(C)CC(=O)O[C@@H]21 [Compound C39, ((7aR,8R,10R,10aR)-10-(4-aminopyrrolo[2,1-f][1,2,4]triazin-7-yl)-10-cyano-4,4-dimethyl-2,6-dioxooctahydro-2H-furo[3,4-b][1,4]dioxonin-8-yl)methyl (2-methoxy-2-methylpropyl) carbonate] | > 50 µM | > 50000 nM | 9.97 min | 8580 nM | 2 | 7.17 | –
